US20230000876A1, “TREATING CANCERS WITH A CYCLIN-DEPENDENT KINASE INHIBITOR” (Nuvation Bio Inc., priority 2021, published 2023)

Legend:
22Rv1 tumors = assay: 22Rv1 prostate tumor model (Example 3); type: in vivo, male Balb/c nude mice; settings: for T/C / TGI: PG-D24
Description: The in vivo anti-tumor efficacy of the compound of formula (I) either alone or in combination with enzalutamide prostate tumor model on male Balb/c nude mice was evaluated. The cell line is derived from a xenograft that was serially propagated in mice after castration—induced regression and relapse of the parental, androgen-dependent CWR22 xenograft.
In the study, the compound of formula (I) was dosed orally (po) once daily (QD) and enzalutamide, when administered, was dosed orally once daily for 25 days, as shown in Table 8.
The 22Rv1 tumor cells were maintained in vitro in RPMI1640 medium supplemented with 10% heat inactivated fetal bovine serum at 37° C. in an atmosphere of 5% CO2 in air. The tumor cells were routinely subcultured twice weekly. The cells growing in an exponential growth phase were harvested and counted for tumor inoculation.
Each mouse was inoculated subcutaneously at the right flank with 22Rv1 tumor cells (5*10^6) with 50% Matrigel for tumor development. The treatments were started on day 7 after tumor inoculation when the average tumor volume reached 94 mm^3. A total of 48 mice were selected and assigned into 6 groups. The testing articles were administrated to the mice according to Table 8.
The major endpoint was to see if the tumor growth could be delayed or mice could be cured. Tumor size was measured twice weekly in two dimensions using a caliper, and the volume was expressed in mm^3 using the formula: V=0.5 a×b^2 where a and b are the long and short diameters of the tumor, respectively. The tumor sizes are then used for the calculation of T/C and TGI values.
The T/C value (in percent) is an indication of antitumor effectiveness; T and C are the mean volume of the treated and control groups, respectively, on a given day.
TGI was calculated for each group using the formula: TGI (%)=[1−(Ti−T0)/(Vi−V0)]×100; Ti is the average tumor volume of a treatment group on PG-Di, T0 is the average tumor volume of the treatment group on the day of treatment start, Vi is the average tumor volume of the vehicle control group on the same day with Ti, and V0 is the average tumor volume of the vehicle group on the day of treatment start.
All groups were taken down on PG-D24 and PG-D25 when the average tumor size of vehicle group reached 2305 mm^3.
Summary statistics, including mean and the standard error of the mean (SEM), are provided for the tumor volume of each group at each time point. For comparison among groups, a one-way ANOVA was performed. All the analysis were conducted using GraphPad Prism software. p<0.05 was considered to be statistically significant.

H1975-luc = assay: CellTiter-Glo anti-proliferation assay, H1975-luc; type: cell-based
Description: The anti-proliferation effect of 2 compounds (the compound of formula (I) and temozolomide) in 7 CNS metastasis cell lines (MOLT-4-luc, Nalm-6-luc, NCI-H460-luc, ACHN-luc2, PC-9-luc, H1975-luc, and KM12-luc) was evaluated.
The plating of cells and compound treatments are shown below in the plate map (Table 12). One plate was needed for the test of 2 compounds (the compound of formula (I) and temozolomide) in one cell line. The compound of formula (I) was tested from 10 μM, 3-fold serial dilution. Temozolomide was tested from 100 μM, 3-fold serial dilution.
All the cell lines were maintained in culture conditions at 37° C. in an atmosphere with 5% CO2 in air. The tumor cells were routinely subcultured. The cells growing in an exponential growth phase were harvested and counted for plating.
Cells were counted by haemocytometer with Trypan blue staining. Next, 135 μL of cell suspension were plated into the assay plates according to the plate map and 135 μL of assay medium into the blank wells. The plates were incubated at 37° C., 5% CO2, 95% air and 100% relative humidity overnight.
4.4.4 Compound Plate (10×) Preparation and Compound Treatment • 10× concentrate compound plate preparation: Add 198 μL of assay medium into each well of the V-bottom plate; then transfer 2 μL of the stock compound solution of each concentration from the stock plate. Add 2 μL of DMSO into the Blank and Control wells. Pipette up and down to mix well. This V-plate is designated as the 10× concentrate compound plate. • For day 0 plate, add 15 μL of the DMSO-medium into the Control wells. The final DMSO concentration was 0.1%. Then directly proceed to cell viability assay. • For assay plate, add 15 μL of the compound-medium of each well from the 10× concentrate compound plate into the cells in 96-well assay plate according to the plate map. Add 15 μL of the DMSO-medium into the Blank and Control wells. The final DMSO concentration was 0.1%. • Return the assay plate into incubator and incubate for 6 days.
The procedures were performed according to the Promega CellTiter-Glo Luminescent Cell Viability Assay Kit manual (Promega-G7573). • The CellTiter-Glo buffer was thawed and equilibrated to room temperature prior to use. • CellTiter-Glo Substrate was equilibrated to room temperature prior to use. • The entire liquid volume of CellTiter-Glo Buffer was transferred into the amber bottle containing CellTiter-Glo Substrate to reconstitute the lyophilized enzyme/substrate mixture. This forms the CellTiter-Glo Reagent. • The contents were mixed by gently vortexing to obtain a homogeneous solution. • The plate was equilibrated and its contents to room temperature for approximately 30 minutes. 75 μL (equal to the half volume of culture medium present in each well) CellTiter-Glo • Reagent was added in each well. Plates were covered with aluminum foil to protect from light. • The contents were mixed for 2 minutes on an orbital shaker to induce cell lysis. • The plate was incubated at room temperature for 20 minutes to stabilize luminescent signal. • Record luminescence on the 2104 EnVision plate reader.
Inhibition rate (IR) of the tested compounds was determined by the following formula: IR (%)=(1−(RLU compound−RLU day0)/(RLU control−RLU day0))*100%. The inhibitions of different dose of compound were calculated in Excel file, and then were used to plot inhibition curves and evaluate related parameters, such as Min (%), Max (%) and GI50. The data were interpreted by GraphPad Prism.

[1] = inhibition rate, 6 days, Compound (I) from 10 μM, temozolomide from 100 μM, 3-fold, 9 points

## CC(C)N1CCOc2c(F)cc(-c3nc(Nc4ccc(C5CCN(C)CC5)cn4)ncc3F)cc21 [Compound (I), 5-fluoro-4-(8-fluoro-4-isopropyl-3,4-dihydro-2H-benzo[b][1,4]oxazin-6-yl)-N-(5-(1-methylpiperidin-4-yl)pyridin-2-yl)pyrimidin-2-amine]
22Rv1 tumors; 10 mg/kg QD
  T/C: 61.13%
  TGI: 40.49%
22Rv1 tumors; Compound (I) 30 mg/kg QD
  T/C: 28.34%
  TGI: 74.71%
22Rv1 tumors; Group 3, 10 mg/kg PO QD, day 0
  Tumor volume (mean ± SEM): 94 ± 5 mm^3
22Rv1 tumors; Group 3, 10 mg/kg PO QD, day 3
  Tumor volume (mean ± SEM): 154 ± 12 mm^3
22Rv1 tumors; Group 3, 10 mg/kg PO QD, day 7
  Tumor volume (mean ± SEM): 257 ± 28 mm^3
22Rv1 tumors; Group 3, 10 mg/kg PO QD, day 10
  Tumor volume (mean ± SEM): 378 ± 40 mm^3
22Rv1 tumors; Group 3, 10 mg/kg PO QD, day 14
  Tumor volume (mean ± SEM): 598 ± 58 mm^3
22Rv1 tumors; Group 3, 10 mg/kg PO QD, day 17
  Tumor volume (mean ± SEM): 825 ± 87 mm^3
22Rv1 tumors; Group 3, 10 mg/kg PO QD, day 21
  Tumor volume (mean ± SEM): 1152 ± 114 mm^3
22Rv1 tumors; Group 3, 10 mg/kg PO QD, day 24
  Tumor volume (mean ± SEM): 1409 ± 102 mm^3
22Rv1 tumors; Group 4, 30 mg/kg PO QD, day 0
  Tumor volume (mean ± SEM): 94 ± 4 mm^3
22Rv1 tumors; Group 4, 30 mg/kg PO QD, day 3
  Tumor volume (mean ± SEM): 131 ± 13 mm^3
22Rv1 tumors; Group 4, 30 mg/kg PO QD, day 7
  Tumor volume (mean ± SEM): 165 ± 25 mm^3
22Rv1 tumors; Group 4, 30 mg/kg PO QD, day 10
  Tumor volume (mean ± SEM): 188 ± 30 mm^3
22Rv1 tumors; Group 4, 30 mg/kg PO QD, day 14
  Tumor volume (mean ± SEM): 289 ± 40 mm^3
22Rv1 tumors; Group 4, 30 mg/kg PO QD, day 17
  Tumor volume (mean ± SEM): 398 ± 60 mm^3
22Rv1 tumors; Group 4, 30 mg/kg PO QD, day 21
  Tumor volume (mean ± SEM): 546 ± 67 mm^3
22Rv1 tumors; Group 4, 30 mg/kg PO QD, day 24
  Tumor volume (mean ± SEM): 653 ± 64 mm^3
H1975-luc; 144 h, 6 days incubation, read-out: Absolute GI50
  GI50: 226 nM
H1975-luc; [1]
  Max (%): 105.8%
  Min (%): −2.3%
